Measured values published in article PMC6891756, “Synthesis and Biological Evaluation of Novel Aminochalcones as Potential Anticancer and Antimicrobial Agents” (Molecules, 2019).
In brackets after ≈: the same amount, converted by molar mass. Read-outs that look alike come from different tables or passages of the source.

Assays:
[1] = system: HT-29; experiment: SRB antiproliferative assay, HT-29; format: cell-based, human; settings: Homo sapiens, HT-29; SRB, 48 h, 1–100 µg·mL^−1; ND = not detected in the tested concentration range
Procedure: (§1) Anticancer activity was evaluated using the sulforhodamine B assay (SRB) on four different human colon cancer cell lines: HT-29, LS180, LoVo and LoVo/DX and green monkey kidney fibroblasts COS7 (ATCC, Manassas, VA, USA). Cell lines HT-29 and COS7 were cultured in α-MEM medium (IIET PAS, Wrocław, Poland), LS180 in OptiMEM medium (IIET PAS), LoVo and LoVo/DX in mixture of α-MEM and OptiMEM medium (1:1 (v:v)). Each culture medium was supplemented with 10% fetal bovine serum, 2 mM glutamine, 100 μg·mL^−1 penicillin, 100 μg·mL^−1 streptomycin and 0.25 μg·mL^−1 amphotericin (all supplements purchased from Gibco (Paisley, UK). Cells were incubated at 37 °C, 5% CO2 in HeraCELL 150i incubator (Thermo Fisher Scientific, Waltham, MA, USA).
(§2) For the SRB assay, cells were seeded onto 96-well plates (Sarstedt, Nümbrecht, Germany) at a density of 5·10^3/well and cultured overnight as described above. Then, the growth medium was gently removed and replaced with fresh medium, supplemented with aminochalcone derivatives in the concentration ranging from 1 µg·mL^−1 to 100 µg·mL^−1. All stock solutions were prepared in DMSO at a concentration of 10 mg·mL^−1. Cells were incubated for 48 h and then the SRB assay was performed as described previously. Each experiment was performed in quadruplicate. The final results were reported as the IC50 values calculated for three independent experiments. Cisplatin (Acros Organics, Waltham, MA, USA) and doxorubicin (Fisher BioReagents, Waltham, MA, USA) were used as positive controls of the test.

[2] = system: LS180; experiment: SRB antiproliferative assay, LS180; format: cell-based, human; settings: Homo sapiens, LS180, 48 h, 1–100 µg·mL^−1, ND = not detected in the tested concentration range
Procedure: as §1, §2

[3] = system: LoVo; experiment: SRB antiproliferative assay, LoVo; format: cell-based, human; settings: Homo sapiens, LoVo, 48 h, 1–100 µg·mL^−1, ND = not detected in the tested concentration range
Procedure: as §1, §2

[4] = system: LoVo/DX; experiment: SRB antiproliferative assay, LoVo/DX; format: cell-based, human; settings: Homo sapiens, LoVo/DX, 48 h, 1–100 µg·mL^−1, ND = not detected in the tested concentration range
Procedure: as §1, §2

[5] = SRB assay, normal fibroblasts COS7; format: cell-based, green monkey; settings: green monkey, COS7 kidney fibroblasts (normal cell line), ND = not detected in the tested concentration range
Procedure: as §1, §2

[6] = system: Escherichia coli ATCC10536; experiment: Microbial growth curve screening, E. coli; format: cell-based; settings: 0.1% (w/v); for ∆OD E. coli: OD at 560 nm, control 1.61
Procedure: (§3) The antimicrobial screening tests were performed on two strains of bacteria: E. coli ATCC10536 and S. aureus DSM799, strain of yeast C. albicans DSM1386 and three strains of fungi: F. linii KB-F1, A. alternata CBS1526 and A. niger DSM1957. All microorganisms were obtained from the collection of the Faculty of Biotechnology and Food Microbiology, Wrocław University of Environmental and Life Sciences. The bacteria were cultured in nutrient broth (Biocorp, Warsaw, Poland), yeast and fungi in YM medium (3 g yeast extract, 3 g malt extract, 5 g bacteriological peptone and 10 g of glucose dissolved in 1 L of distilled water). The tests were carried out in 100-well microtiter plates. To each well 280 μL of culture medium, 10 μL of microorganism suspension and 10 μL of aminochalcone (1–18) dissolved in dimethyl sulfoxide (3% (w/v)) were added. The final concentration of the tested compound (1–18) was 0.1% (w/v). Each experiment were performed in 3 replications. The optical density of the cell suspension was measured on Bioscreen C (Automated Growth Curve Analysis System Lab System, Vantaa, Finland) at 560 nm automatically, at regular intervals of 30 min for 2–3 days. Cell cultures were maintained at 28 °C on a continuous shaker. To prepare the growth curves for each strain, the mean values of the absorbance in a function of time were used. The resulting antimicrobial activity was expressed as the increase of optical density (ΔOD) and was compared to that of the control cultures in the medium supplemented with dimethyl sulfoxide and also with reference substances: oxytetracycline (against bacteria), cycloheximide (against yeast) and nystatin (against fungi) (Sigma Aldrich).

[7] = system: Staphylococcus aureus DSM799; experiment: Microbial growth curve screening, S. aureus; format: cell-based; settings: 0.1% (w/v); for ∆OD S. aureus: OD at 560 nm, control 1.67; for Lag-phase S. aureus: control 2.5 h
Procedure: as §3

[8] = system: Candida albicans DSM1386; experiment: Microbial growth curve screening, C. albicans; format: cell-based; settings: 0.1% (w/v); for ∆OD C. albicans: OD at 560 nm, control 1.58; for Lag-phase C. albicans: control 3.0 h
Procedure: as §3

[9] = system: Alternaria alternata CBS1526; experiment: Microbial growth curve screening, A. alternata; format: cell-based; settings: 0.1% (w/v); for ∆OD A. alternata: OD at 560 nm, control 1.86; for Lag-phase A. alternata: control 16.5 h
Procedure: as §3

[10] = system: Fusarium linii KB-F1; experiment: Microbial growth curve screening, F. linii; format: cell-based; settings: 0.1% (w/v); for ∆OD F. linii: OD at 560 nm, control 1.95; for Lag-phase F. linii: control 13.5 h
Procedure: as §3

[11] = system: Aspergillus niger DSM1957; experiment: Microbial growth curve screening, A. niger; format: cell-based; settings: 0.1% (w/v); for ∆OD A. niger: OD at 560 nm, control 2.14; for Lag-phase A. niger: control 11.0 h
Procedure: as §3

[12] = system: Escherichia coli ATCC10536; experiment: MIC evaluation (broth method), E. coli; format: cell-based; settings: 48–72 h, read-out: Minimal inhibitory concentration E. coli
Procedure: (§4) Sterile 96-well microtiter plates (Sarstedt) with nutrient broth (for bacteria) (Biocorp) or YM medium (for yeast and filamentous fungi) were inoculated with a standardized cell suspension of bacteria and yeast or fungal spores of 10^5 cell·mL^−1, and supplemented with aminochalcones dissolved in DMSO. […] All analysis were conducted in triplicates. The plates were incubated at 30 °C (bacteria and yeast) or 25 °C (filamentous fungi) for 48–72 h. The results were measured with the Spark® Multimode Microplate Reader (Tecan, Männedorf, Switzerland) at a 560 nm wavelength. The minimal inhibitory concentration was defined as the lowest concentration of a tested compound that completely restricted the growth of the microorganism. In order to verify the obtained results, microbial cultures subjected to each concentration of aminochalcone were inoculated onto nutrient agar or YM plates and incubated as described above. The lack of growth on agar plate was a confirmation of the MIC of the tested compound. The resulting MIC values were compared with the reference substances: oxytetracycline (against bacteria), cycloheximide (against yeast) and nystatin (against fungi) (Sigma Aldrich).

[13] = system: Alternaria alternata CBS1526; experiment: MIC evaluation (broth method), A. alternata; format: cell-based; settings: Alternaria alternata, CBS1526, 48–72 h, read-out: Minimal inhibitory concentration A. alternata
Procedure: as §4

[14] = system: Staphylococcus aureus DSM799; experiment: MIC evaluation (broth method), S. aureus; format: cell-based; settings: 48–72 h, read-out: Minimal inhibitory concentration S. aureus
Procedure: as §4

[15] = system: Candida albicans DSM1386; experiment: MIC evaluation (broth method), C. albicans; format: cell-based
Procedure: as §4

[16] = system: Aspergillus niger DSM1957; experiment: MIC evaluation (broth method), A. niger; format: cell-based; settings: Aspergillus niger, DSM1957, 48–72 h, read-out: Minimal inhibitory concentration A. niger
Procedure: as §4

[17] = system: Fusarium linii KB-F1; experiment: MIC evaluation (broth method), F. linii; format: cell-based; settings: Fusarium, KBF1, 48–72 h, read-out: Minimal inhibitory concentration F. linii
Procedure: as §4

[18] = DSM1386, broth method, 48–72 h, read-out: Minimal inhibitory concentration C. albicans

| SMILES | IC50 [1] [µg/mL] | IC50 [2] [µg/mL] | IC50 [3] [µg/mL] | IC50 [4] [µg/mL] | IC50 at 48 h [5] [µg/mL] | ∆OD E. coli [6] | ∆OD S. aureus [7] | Lag-phase S. aureus [7] [h] | ∆OD C. albicans [8] | Lag-phase C. albicans [8] [h] | ∆OD A. alternata [9] | Lag-phase A. alternata [9] [h] | ∆OD F. linii [10] | Lag-phase F. linii [10] [h] | ∆OD A. niger [11] | Lag-phase A. niger [11] [h] | MIC [12] [µg/mL] | melting point [°C] | MIC [13] [µg/mL] | MIC [14] [µg/mL] | also measured |
| --- | --- | --- | --- | --- | --- | --- | --- | --- | --- | --- | --- | --- | --- | --- | --- | --- | --- | --- | --- | --- | --- |
| CCc1ccc(/C=C/C(=O)c2ccccc2N)cc1 [Compound 4, 2′-Amino-4-ethylchalcone] | 3.98 ± 0.03 (≈ 15.8 µM) | 5.1 ± 0.65 (≈ 20.3 µM) | 4.77 ± 0.37 (≈ 19 µM) | 4.78 ± 0.19 (≈ 19 µM) | 9.57 ± 0.52 (≈ 38.1 µM) | 0.0 | 0.84 | 32.5 | 0.98 | 6.0 | 0.40 | 26.5 | 1.04 | 7.5 | 0.60 | 30.0 | 0.5 (≈ 1.99 µM) | 34 to 36 | – | – | – |
| CCc1ccc(/C=C/C(=O)c2ccc(N)cc2)cc1 [Compound 6, 4′-Amino-4-ethylchalcone] | 3.61 ± 0.21 (≈ 14.4 µM) | 5.2 ± 0.3 (≈ 20.7 µM) | 4.26 ± 0.19 (≈ 16.9 µM) | 3.68 ± 0.3 (≈ 14.6 µM) | 7.16 ± 0.34 (≈ 28.5 µM) | 0.16 | 0.87 | 28.0 | 0.44 | 9.5 | – | – | 0.40 | 9.0 | 0.41 | 36.5 | – | 125 | 1 (≈ 3.98 µM) | – | Lag-phase E. coli ([6]; control 4.0 h): 3.5 h |
| Nc1ccccc1C(=O)/C=C/c1ccc(C(=O)O)cc1 [Compound 7, 2′-Amino-4-carboxychalcone] | 4.26 ± 0.13 (≈ 15.9 µM) | 7.86 ± 0.35 (≈ 29.4 µM) | 7.68 ± 0.34 (≈ 28.7 µM) | 11.1 ± 0.44 (≈ 41.5 µM) | 7.78 ± 0.75 (≈ 29.1 µM) | 0.0 | 0.0 | – | – | – | – | – | 0.37 | 26.0 | – | – | 0.125 (≈ 0.468 µM) | 188 to 191 | 0.5 (≈ 1.87 µM) | 0.125 (≈ 0.468 µM) | MIC [15, 18]: 0.125 µg/mL (≈ 0.468 µM); MIC [16]: 0.125 µg/mL (≈ 0.468 µM) |
| Nc1ccccc1C(=O)/C=C/c1ccc(OCc2ccccc2)cc1 [Compound 13, 2′-Amino-4-benzyloxychalcone] | – | – | – | – | – | 0.0 | 0 | – | – | – | 0.92 | 13.0 | 0.32 | 16.0 | 0.78 | 21.5 | 0.25 (≈ 0.759 µM) | – | – | 0.25 (≈ 0.759 µM) | MIC [15, 18]: 0.5 µg/mL (≈ 1.52 µM) |
| COc1cc(/C=C/C(=O)c2ccccc2N)ccc1OCc1ccccc1 [Compound 16, 2′-Amino-4-benzyloxy-3-methoxychalcone] | 4.85 ± 0.08 (≈ 13.5 µM) | 6.64 ± 0.29 (≈ 18.5 µM) | 5.77 ± 0.38 (≈ 16.1 µM) | 4.59 ± 0.21 (≈ 12.8 µM) | 9.02 ± 0.17 (≈ 25.1 µM) | 0.0 | 0 | – | 0.66 | 8.5 | 0.64 | 8.5 | 0 | – | 0.41 | 40.5 | 0.5 (≈ 1.39 µM) | – | – | 0.5 (≈ 1.39 µM) | MIC [17]: 0.5 µg/mL (≈ 1.39 µM) |
| COc1cc(/C=C/C(=O)c2cccc(N)c2)ccc1OCc1ccccc1 [Compound 17, 3′-Amino-4-benzyloxy-3-methoxychalcone] | 2.9 ± 0.27 (≈ 8.07 µM) | 3.76 ± 0.38 (≈ 10.5 µM) | 1.71 ± 0.13 (≈ 4.76 µM) | 1.77 ± 0.09 (≈ 4.92 µM) | 3.45 ± 0.22 (≈ 9.6 µM) | 0.0 | 0.36 | 33.5 | 0.55 | 9.0 | – | – | 0.24 | 11.0 | – | – | 0.125 (≈ 0.348 µM) | 38 | 1 (≈ 2.78 µM) | – | MIC [16]: 1 µg/mL (≈ 2.78 µM) |
| C[C@@H]1C[C@@H]([C@H](O)CC2CC(=O)NC(=O)C2)C(=O)[C@@H](C)C1 [Cycloheximide, reference compound] | – | – | – | – | – | – | – | – | 0.0 | – | – | – | – | – | – | – | – | – | – | – | MIC ([15]; DSM1386, read-out: Minimal inhibitory concentration C. albicans): 0.5 µg/mL (≈ 1.78 µM) |
